Results as given in patent US6861555B2, “Calcium dicarboxylate ethers, methods of making same, and treatment of vascular disease and diabetes therewith” (Warner-Lambert Company, priority 2000, dated 2005).
Counter-ions that a name gives are not always drawn. One block for each compound: values may come before it.

Assays:
[1] = Bulk density (loose and tapped) of CI-1027 lots; settings: for Bulk Density Loose / Bulk Density Tapped: per lot
[2] = Observed electrostatic charge retention of bulk product; type: physicochemical; settings: compared with amorphous product / salts dried without humidification
From the text: Additional analysis on the post-humidification dried dialkylcarboxylic acid ether monocalcium salt (II) is indicative of the formation of a salt which is associated with between about 0.1 and about 1 molar equivalent of water per equivalent of dialkylcarboxylic acid ether calcium salt (II), as shorn in FIGS. 1 and 15, for example.

[3] = Salt form and hygroscopic status: comparison of salts of 72953; type: physicochemical; settings: after complete drying
From the text: Following the general procedure of Example 1, 72953 was reacted with sodium hydroxide, potassium hydroxide, and acetylcholine in stoichiometric ratios of 1:1 per dialkanoic acid molecule, and 2:1 per dialkanoic acid molecule. The properties of the solids thus prepared, following complete drying, were compared to the calcium salt (CI-1027) from Example 1.

[4] = system: Lp(a) and other lipoprotein parameters; experiment: Effects on Lp(a) and other lipoprotein parameters, oral gavage for 2 weeks, monkeys; type: in vivo, Cynomolgus macaque monkeys
Method: (§1) The effects of CI-1027 of Formula II, Crystalline Form 1, on Lp(a) and other lipoprotein parameters in two models of elevated Lp(a) were determined by the following in vivo assays
(§2) Cynomolgus macaque monkeys and Lp(a) transgenic mice are dosed with CI-1027 at 3, 10, 30, 100, or 300 mg/kg for 2 weeks by oral gavage. […] In the transgenic mouse study, female mice were allocated into five groups with equivalent Lp(a) levels, and dosed by oral gavage with either vehicle alone or vehicle plus CI-1027 (3, 10, 30, and 100 mg/kg/day). Blood is sampled weekly (2 weeks prior to treatment, 2 weeks on treatment).

[5] = system: Lp(a) and other lipoprotein parameters; experiment: Effects on Lp(a) and other lipoprotein parameters, oral gavage, transgenic mouse study; type: in vivo, Lp(a) transgenic mice; set-up: maximum decrease in total plasma cholesterol: dose or concentration left out as unconfirmed
Method: as §1, §2

[6] = Pharmacokinetics of CI-1027 in rat; type: in vivo
[7] = Pharmacokinetics of CI-1027 in dog; type: in vivo
[8] = Pharmacokinetics of CI-1027 in monkey; type: in vivo
[9] = Pharmacokinetics of CI-1027, species not stated; type: in vivo
plasma proteins = experiment: In vitro binding to plasma proteins; type: in vitro ADME
rat hepatocytes = experiment: In vitro metabolism in rat hepatocytes using radiolabeled compound; type: in vitro ADME
dog hepatocytes = experiment: In vitro metabolism in dog hepatocytes using radiolabeled compound; type: in vitro ADME
monkey hepatocytes = experiment: In vitro metabolism in monkey hepatocytes using radiolabeled compound; type: in vitro ADME
[10] = Mean recovery of 14C dose in excreta, intact and bile-fistula cannulated rats; type: in vivo, rat; settings: 10 mg/kg
[11] = Mean recovery of 14C dose in excreta, intact and bile-fistula cannulated monkeys; type: in vivo, monkey; settings: 10 mg/kg
[12] = in vivo
Method: Metabolite profiling is performed by HPLC with radiometric detection and metabolites arc identified by LC/RAM/MS/MS.

[13] = in vivo, other: intravenous (IV) and per orals (PO), intravenous (IV) and per orals (PO), read-out: apparent elimination half-life

Bulk Density Loose [1]: 0.372 g/mL
Bulk Density Tapped [1]: 0.521 g/mL
Compound: CC(C)(CCCCOCCCCC(C)(C)C(=O)[O-])C(=O)[O-].[Ca+2] [CD-3221A]

Bulk Density Loose [1]: 0.235 g/mL
Bulk Density Tapped [1]: 0.300 g/mL
Compound: CC(C)(CCCCOCCCCC(C)(C)C(=O)[O-])C(=O)[O-].[Ca+2] [CD-3243]

Bulk Density Loose [1]: 0.234 g/mL
Bulk Density Tapped [1]: 0.337 g/mL
Compound: CC(C)(CCCCOCCCCC(C)(C)C(=O)[O-])C(=O)[O-].[Ca+2] [CD-3082]

Bulk Density Loose [1]: 0.280 g/mL
Bulk Density Tapped [1]: 0.315 g/mL
Compound: CC(C)(CCCCOCCCCC(C)(C)C(=O)[O-])C(=O)[O-].[Ca+2] [CD-3055]

bulk density, average ([1]; amorphous form): about 0.3 gm/mL
Compound: CC(C)(CCCCOCCCCC(C)(C)C(=O)[O-])C(=O)[O-].[Ca+2] [listing 1 of 2 here]

Bulk Density Loose [1]: 0.215 g/mL
Bulk Density Tapped [1]: 0.270 g/mL
Compound: CC(C)(CCCCOCCCCC(C)(C)C(=O)[O-])C(=O)[O-].[Ca+2] [CD-3102]

absorption [6]: rapidly absorbed
half-life [6, 13]: 5 to 7 h
absorption [7]: rapidly absorbed
half-life [7, 13]: 17 to 31 h
absorption [8]: rapidly absorbed
half-life [8, 13]: 9 to 15 h
Oral bioavailability [9]: appeared to be high
linearity of pharmacokinetics [9]: nonlinear
In vitro binding to plasma proteins (plasma proteins): species and concentration dependent
primary binding protein (plasma proteins): Albumin
Mean recovery in bile ([10]; Fistula Rat): 87.5 percent ^14C dose
Mean recovery in feces ([10]; Fistula Rat): 0.72 percent ^14C dose
Mean recovery in urine ([10]; Fistula Rat): 10.5 percent ^14C dose
Mean total recovery ([10]; Fistula Rat): 98.7 percent ^14C dose
Mean recovery in feces ([10]; Intact Rat): 56.9 percent ^14C dose
Mean recovery in urine ([10]; Intact Rat): 37.0 percent ^14C dose
Mean total recovery ([10]; Intact Rat): 93.9 percent ^14C dose
Mean recovery in bile ([11]; Fistula Monkey): 42.0 percent ^14C dose
Mean recovery in feces ([11]; Fistula Monkey): 3.82 percent ^14C dose
Mean recovery in urine ([11]; Fistula Monkey): 62.2 percent ^14C dose
Mean total recovery ([11]; Fistula Monkey): 108 percent ^14C dose
Mean recovery in feces ([11]; Monkey (intact)): 17.3 percent ^14C dose
Mean recovery in urine ([11]; Monkey (intact)): 78.1 percent ^14C dose
Mean total recovery ([11]; Monkey (intact)): 95.4 percent ^14C dose
metabolite detected in bile and urine [12]: acyl-glucuronide is detected
share of plasma radioactivity that was unchanged drug [12]: ~100%
Compound: CC(C)(CCCCOCCCCC(C)(C)C(=O)[O-])C(=O)[O-].[Ca+2] [CI-1027, 6-(5-carboxy-5-methyl-hexyloxy)-2,2-dimethylhexanoic acid monocalcium salt (1:1)]
Lp(a) lowering ([4]; 3 mg/kg/day): −9%
Lp(a) lowering ([4]; 10 mg/kg/day): −23%
Lp(a) lowering ([4]; 30 mg/kg/day): −64%
Lp(a) lowering ([4]; 100 mg/kg/day): −68%
Lp(a) lowering ([4]; 300 mg/kg/day): −87%
HDL cholesterol ([4]; 3-300 mg/kg): decreased
total plasma cholesterol ([4]; 3-300 mg/kg): decreased
decrease in plasma Lp(a) compared to mice dosed with vehicle alone ([5]; female mice, 3 mg/kg/day oral gavage, after 1 week): −15%
decrease in plasma Lp(a) compared to mice dosed with vehicle alone ([5]; female mice, 10 mg/kg/day oral gavage, after 1 week): −41%
decrease in plasma Lp(a) compared to mice dosed with vehicle alone ([5]; female mice, 30 mg/kg/day oral gavage, after 1 week): −54%
decrease in plasma Lp(a) compared to mice dosed with vehicle alone ([5]; female mice, 100 mg/kg/day oral gavage, after 1 week): −61%
HDL cholesterol (lipoprotein profiles by HPLC) ([5]; female mice, after 1 week): remained unchanged
LDL cholesterol (lipoprotein profiles by HPLC) ([5]; female mice, after 1 week): significant decreases
decrease in plasma apoB ([5]; female mice, after 1 week): up to 30%
maximum decrease in total plasma cholesterol ([5]; female mice, after 1 week): 32%
ratio of HDL cholesterol to VLDL+LDL cholesterol ([5]; with treatment, control value 0.39): 0.65
enterohepatic recirculation [9]: seemed to undergo enterohepatic recirculation
14C peaks found in hepatocyte incubation (rat hepatocytes): two major ^14C peaks, intact drug, and a glucuronide conjugate
14C peaks found in hepatocyte incubation (dog hepatocytes): two major ^14C peaks, intact drug, and a glucuronide conjugate
14C peaks found in hepatocyte incubation (monkey hepatocytes): two major ^14C peaks, intact drug, and a glucuronide conjugate

Bulk Density Loose [1]: 0.336 g/mL
Bulk Density Tapped [1]: 0.439 g/mL
Compound: CC(C)(CCCCOCCCCC(C)(C)C(=O)[O-])C(=O)[O-].[Ca+2] [listing 2 of 2 here]

Bulk Density Loose [1]: 0.242 g/mL
Bulk Density Tapped [1]: 0.379 g/mL
Compound: CC(C)(CCCCOCCCCC(C)(C)C(=O)[O-])C(=O)[O-].[Ca+2] [CD-3135]

Further lines, the compound ahead of its results:

Compound: CC(C)(CCCCOCCCCC(C)(C)C(=O)[O-])C(=O)[O-].[Ca+2] [CD-3111]
Bulk Density Loose [1]: 0.218 g/mL
Bulk Density Tapped [1]: 0.264 g/mL

Compound: CC(C)(CCCCOCCCCC(C)(C)C(=O)[O-])C(=O)[O-].[Ca+2] [CD-3103]
Bulk Density Loose [1]: 0.343 g/mL
Bulk Density Tapped [1]: 0.484 g/mL

Compound: CC(C)(CCCCOCCCCC(C)(C)C(=O)O)C(=O)O [Example 12, 6-(5-carboxy-5-methyl-hexyloxy)-2,2-dimethylhexanoic acid monocalcium salt. Crystalline Form 2]
electrostatic character of bulk product ([2]; listed as Crystal Form 2, monocalcium salt): less capable of retaining an electrostatic charge

Compound: 6-(5-carboxy-5-methyl-hexyloxy)-2,2-dimethylhexanoic acid monocalcium salt hydrate, Crystalline Form 1 [Example 1]
bulk density following tapping, average ([1]; highly crystalline salt after humidification process): about 0.4 g/mL

Compound: CC(C)(CCCCOCCCCC(C)(C)C(=O)O)C(=O)[O-].C[N+](C)(C)CCO [mono-choline]
Physical Form [3]: Oil

Compound: CC(C)(CCCCOCCCCC(C)(C)C(=O)O)C(=O)O [Example 1, 6-(5-carboxy-5-methyl-hexyloxy)-2,2-dimethylhexanoic acid monocalcium salt hydrate, Crystalline Form 1]
electrostatic character of bulk product ([2]; listed as CI-1027 hydrate Crystalline Form 1): less electrostatic than the amorphous form
electrostatic character of bulk product ([2]; listed as Crystal Form 1): less capable of retaining an electrostatic charge
Physical Properties of Solid (hygroscopic status) [3]: None to Slight Hygroscopic

Compound: CC(C)(CCCCOCCCCC(C)(C)C(=O)[O-])C(=O)[O-].[K+].[K+] [di-potassium]
Physical Form [3]: Solid
Physical Properties of Solid (hygroscopic status) [3]: Very Hygroscopic

Compound: CC(C)(CCCCOCCCCC(C)(C)C(=O)[O-])C(=O)[O-].C[N+](C)(C)CCO.C[N+](C)(C)CCO [di-choline]
Physical Form [3]: Oil

Compound: CC(C)(CCCCOCCCCC(C)(C)C(=O)[O-])C(=O)[O-].[Na+].[Na+] [di-sodium]
Physical Form [3]: Solid
Physical Properties of Solid (hygroscopic status) [3]: Very Hygroscopic
